# “And” between values parts separate entries of the source, which are not always exact repeats. Equal values may be shown once.
# What was measured:
# Assay type in all cases: in vivo, human
# [1] = tested on: patients with moderate to severe migraine headaches of duration of 24 to 96 hrs; assay: Pilot study: IV valproate vs IM DHE with metoclopramide for abortive treatment of acute migraine headache (Example 1); settings: for % Headache Relief: 5 patients per group; for Headache Severity / Nausea/vomiting / Phonophobia / Photophobia: individual patient; for Headache Severity: grade 0-3; for Nausea/vomiting / Phonophobia / Photophobia: presence
# Description: This Example describes the results of a pilot study using intravenous valproate for abortive treatment of acute migraine headache. • Methods. Patients with established diagnosis of migraine with and without aura were considered for randomization to intravenous (“IV”) valproate (“VPA”) or intramuscular (“IM”) dihydroergotamine (“DHE”) with metoclopramide, also referred to herein as […]®, for patients with moderate to severe migraine headaches of duration of 24 to 96 hrs. Patients received intravenous infusion of 500 mgs of valproate over 30 mins or 1 mg DHE with 10 mgs metoclopramide IM. Headache severity, presence of nausea, phonophobia and photophobia were rated at baseline, 1 hr, 2 hrs, and 4 hrs. Table I and II. There were 5 patients in each group. • Results. Of the 5 patients receiving valproate, 4 of the 5 had response of their headaches from moderate or severe to none or mild at 1 hr, 2 hrs, and 4 hrs. Of the 5 patients receiving DHE, 3 of the 5 patients had headache response to moderate or severe to mild or none at 1 hr, 2 hrs, and 4 hrs. Table III. […] In the DHE group, 2 of 5 had nausea at baseline, and 1 had nausea at 1 hr, 2 hrs, and 4 hrs. Table IVa. […] In the DHE group, 3 of 5 had relief of photophobia at 1 hr, 4 of 5 had relief at 2 hrs and 4 hrs. […] In the DHE group, 2 of 5 had relief of phonophobia at 1 hr, and 3 of 5 had relief of phonophobia at 2 hrs and 4 hrs. Table IVb. • Conclusions. Intravenous valproate is an alternative therapy for abortive treatment of moderate to severe prolonged acute migraine headache. Anti-convulsant mechanisms may be relevant to treatment of headache symptomatology.
# [2] = tested on: patients with moderate to severe headaches of 24–72 hours duration; assay: Expanded study: IV VPA vs DHE with metoclopramide IM, acute migraine headache (Example 2); settings: for % Headache Relief: 10 patients per group; for Headache Severity / Nausea/vomiting / Phonophobia / Photophobia: individual patient, sodium; for Headache Severity: grade 0-3; for Nausea/vomiting / Phonophobia / Photophobia: presence
# Procedure: This Example describes an expanded study and analysis of the effectiveness of intravenous VPA for the treatment of acute migraine headache of significant duration. Patient data from the pilot study described in Example 1 has been incorporated and further analyzed in addition to new patient data. • Design. […] Patients alternately received intravenous VPA 500 mgs over 15–30 minutes, or dihydroergotamine (“DHE”) 1 mg with metoclopramide 10 mgs intramuscularly (“IM”). Age ranged from 22 to 73 years. Patients rated severity of headache, presence or absence of nausea, photophobia, and phonophobia at 1, 2 and 4 hrs. Table V and Table VI. • Results. In the 10 patients receiving DHE and metoclopramide, 40% had headache relief at 1 hour, 50% at 2 hours, 60% at 4 hours. The percent with nausea at 0, 1, 2, and 4 hours was 60%, 10%, 20%, 30% respectively, photophobia at 0, 1, 2, and 4 hours 100%, 50%, 50%, 40% respectively, phonophobia at 0, 1, 2, and 4 hours 80%, 30%, 50%, 40% respectively. In the 10 patients receiving i.v. VPA, 60% had headache relief at 1 hour, 70% at 2 hours, 70% at 4 hours, the percent with nausea at 0, 1, 2, and 4 hours was 70%, 30% 30%, 20% respectively, photophobia at 0, 1, 2, and 4 hours was 100%, 40%, 40%, 30% respectively, and phonophobia at 0, 1, 2, and 4 hours was 90%, 40%, 40%, 30% respectively. Table VII. • Conclusions. The results of the present study indicate that intravenous VPA is at least as efficacious as DHE for abortive treatment of acute migraine. Accordingly, intravenous VPA offers a treatment option for migraine headache patients who have recently used a triptan or DHE without the risk of drug-drug interaction or cardiovascular complications.
# [3] = tested on: patients with moderate to severe migraine headaches of duration of 24 to 96 hrs; assay: Pilot study: IV valproate vs IM DHE with metoclopramide for abortive treatment of acute migraine headache (Example 1); settings: individual patient, grade 0-3; 24-h; sodium
# [4] = tested on: patients with moderate to severe headaches of 24–72 hours duration; assay: Expanded study: IV VPA vs DHE with metoclopramide IM, acute migraine headache (Example 2); settings: 24-h
compound,measurement,setting,value
"CCCC(CCC)C(=O)[O-].[Na+] [Depacon, valproate sodium]",% experiencing Nausea,[1]; 0-h (baseline),80%
same,% experiencing Photophobia,[1]; 0-h (baseline),100%
same,% experiencing phonphobia,[1]; 0-h (baseline),80%
same,% experiencing Nausea,[1]; 1-h,20%
same,% experiencing Photophobia,[1]; 1-h,20%
same,% experiencing phonphobia,[1]; 1-h,20%
same,% experiencing Nausea,[1]; 2-h,20%
same,% experiencing Photophobia,[1]; 2-h,20%
same,% experiencing phonphobia,[1]; 2-h,20%
same,% experiencing Nausea,[1]; 4-h,0%
same,% experiencing Photophobia,[1]; 4-h,0%
same,% experiencing phonphobia,[1]; 4-h,0%
same,% Headache Relief,[1]; 1-h,60%
same,% Headache Relief,[1]; 2-h,100%
same,% Headache Relief,[1]; 4-h,80%
same,% Headache Relief,[1]; 24-h,40%
same,% experiencing Nausea,[1]; 24-h,40%
same,% experiencing Photophobia,[1]; 24-h,40%
same,% experiencing phonphobia,[1]; 24-h,40%
same,Headache Severity,"[1]; 0-h (baseline), Depacon IV 500 mg or DHE 1 mg + Reglan 10 mg, sodium",3 (3×) and 2 (2×)
same,Headache Severity,"[1]; 1-h, sodium",1 (2×) and 0 (2×) and 2
same,Headache Severity,"[1]; 2-h, sodium",1 (4×) and 0
same,Headache Severity,"[1]; 4-h, sodium",0 (3×) and 1 and 2
same,Nausea/vomiting,"[1]; 0-h (baseline), sodium",0
same,Phonophobia,"[1]; 0-h (baseline), sodium",0
same,Nausea/vomiting,"[1]; 1-h, sodium",0
same,Phonophobia,"[1]; 1-h, sodium",0
same,Photophobia,"[1]; 1-h, sodium",0
same,Nausea/vomiting,"[1]; 2-h, sodium",0
same,Phonophobia,"[1]; 2-h, sodium",0
same,Photophobia,"[1]; 2-h, sodium",0
same,Nausea/vomiting,[1]; 4-h,0
same,Phonophobia,[1]; 4-h,0
same,Photophobia,[1]; 4-h,0
same,Nausea/vomiting,"[1]; 24-h, sodium",0
same,Phonophobia,"[1]; 24-h, sodium",0
same,Photophobia,"[1]; 24-h, sodium",0
same,patients who had nausea,"[1]; of 5 patients, 1 hr",1
same,patients who had relief of phonophobia,"[1]; of 5 patients, 1 hr",4 of 5
same,patients who had relief of photophobia,"[1]; of 5 patients, 1 hr",4 of 5
same,patients with response of headache from moderate or severe to none or mild,"[1]; of 5 patients, 1 hr",4 of the 5
same,patients who had nausea,"[1]; of 5 patients, 2 hrs",1
same,patients who had relief of phonophobia,"[1]; of 5 patients, 2 hrs",4 of 5
same,patients who had relief of photophobia,"[1]; of 5 patients, 2 hrs",4 of 5
same,patients with response of headache from moderate or severe to none or mild,"[1]; of 5 patients, 2 hrs",4 of the 5
same,patients who had nausea,"[1]; of 5 patients, 4 hrs",all had relief of nausea
same,patients who had relief of phonophobia,"[1]; of 5 patients, 4 hrs",all had relief
same,patients who had relief of photophobia,"[1]; of 5 patients, 4 hrs",all had relief
same,patients with response of headache from moderate or severe to none or mild,"[1]; of 5 patients, 4 hrs",4 of the 5
same,patients who had nausea,"[1]; of 5 patients, baseline",4 of 5
same,patients who had photophobia,"[1]; of 5 patients, baseline",all had photophobia
same,% experiencing Nausea,[2]; 0-h (baseline),70%
same,% experiencing Phonophobia,[2]; 0-h (baseline),90%
same,% experiencing Photophobia,[2]; 0-h (baseline),100%
same,% experiencing Nausea,[2]; 1-h,30%
same,% experiencing Phonophobia,[2]; 1-h,40%
same,% experiencing Photophobia,[2]; 1-h,40%
same,% experiencing Nausea,[2]; 2-h,30%
same,% experiencing Phonophobia,[2]; 2-h,40%
same,% experiencing Photophobia,[2]; 2-h,40%
same,% experiencing Nausea,[2]; 4-h,20%
same,% experiencing Phonophobia,[2]; 4-h,30%
same,% experiencing Photophobia,[2]; 4-h,30%
same,% Headache Relief,[2]; 1-h,60%
same,% Headache Relief,[2]; 2-h,70%
same,% Headache Relief,[2]; 4-h,70%
same,% Headache Relief,[2]; 24-h,50%
same,% experiencing Nausea,[2]; 24-h,40%
same,% experiencing Phonophobia,[2]; 24-h,60%
same,Headache Severity,"[2]; 0-h (baseline), Depacon IV 500 mg or DHE 1 mg IM + Reglan 10 mg IM",3 (5×) and 2 (5×)
same,Headache Severity,[2]; 1-h,1 (4×) and 0 (2×) and 2 (2×) and 3 (2×)
same,Headache Severity,[2]; 2-h,1 (6×) and 2 (3×) and 0
same,Headache Severity,[2]; 4-h,0 (3×) and 1 (4×) and 2 (2×) and 3
same,Headache Severity,[2]; 24-h,1 (3×) and 2 (4×) and 3 and 0 (2×)
same,Nausea/vomiting,[2]; 0-h (baseline),0
same,Phonophobia,[2]; 0-h (baseline),0
same,Nausea/vomiting,[2]; 1-h,0
same,Phonophobia,[2]; 1-h,0
same,Photophobia,[2]; 1-h,0
same,Nausea/vomiting,[2]; 2-h,0
same,Phonophobia,[2]; 2-h,0
same,Photophobia,[2]; 2-h,0
same,Nausea/vomiting,[2]; 4-h,0
same,Phonophobia,[2]; 4-h,0
same,Photophobia,[2]; 4-h,0
same,Nausea/vomiting,[2]; 24-h,0
same,Phonophobia,[2]; 24-h,0
same,Photophobia,[2]; 24-h,0
same,Headache Severity,[3],1 and 2 (2×) and 3 and 0
same,% experiencing Photophobia,[4],60%

# Source: US7163689B2, “Intravenous valproate for acute treatment of migraine headache” (priority 1999, dated 2007)
